Structures can show the parent of a compound that is named as a salt. Where two headings read alike, the source gives them in different places.
Assays:
Assay type in all cases: cell-based
[1] = test system: PA-1 cells; assay: Antiproliferation assay PA-1 (Assay 7); conditions: Homo sapiens, read-out: Antiproli PA-1 IC50 median
Description: (§1) Assessment of the Anti-Proliferative Effect of Compounds in Different Cell Lines
(§2) The impact of compounds on the proliferation of different cell lines was assessed using the CellTiter-Glo® Luminescent Cell Viability reagent from Promega (G7573).
(§3) In parallel, cells were plated in a reference (day 0) plate for time zero determination. Cells were incubated in a humidified incubator at 37° C. overnight.
(§4) Rim wells were excluded. The cells were incubated for 72 h hours in a humidified incubator at 37° C. The day 0 plate was measured by adding 30 μL/well of CTG solution (CellTiter-Glo® Luminescent Cell Viability reagent, Promega G7573) to time zero wells in the reference plate followed by a 10 minutes incubation and luminescence reading at 0.1 ms. using the PHERAstar FS microplate reader (BMG Labtech).
(§5) After 72 h incubation, the treated plates were measured in the same way as the day 0 plate mentioned above. The Bella DRC Master Sheet was used to calculate IC50s, with CI=day 0 values and C0=DMSO control values.

[2] = test system: SK-BR-3 cells; assay: Antiproliferation assay SK-BR-3 (Assay 7); conditions: Homo sapiens, read-out: Antiproli SK-BR-3 IC50 median
Description: as §1, §2, §3, §4, §5

[3] = test system: SUDHL10 cells; assay: Antiproliferation assay SUDHL10 (Assay 7); conditions: read-out: Antiproli SUDHL10 IC50 (median), 72 h, CellTiter-Glo
Description: as §1, §2, §3, §4, §5

CCc1c2c(nn1C)C(CCC1CCOCC1)OCCCCn1c(C(=O)O)c(CCCOc3cccc4cc(F)ccc34)c3ccc(Cl)c-2c31 (single isomer, unassigned; enantiomer 1) [Example 63, (+)-4-chloro-3-ethyl-7-{3-[(6-fluoronaphthalen-1-yl)oxy]propyl}-2-methyl-15-[2-(oxan-4-yl)ethyl]-2,10,11,12,13,15-hexahydropyrazolo[4′,3′:9,10][1,6]oxazacycloundecino[8,7,6-hi]indole-8-carboxylic Acid—N-ethylethanamine Salt (Enantiomer 1)]
IC50 ([1]; PA-1, 72 h): 204 nM

Cc1c2c(nn1C)C(CCN1CCOCC1)OCCCCn1c(C(=O)O)c(CCCOc3cccc4cc(F)ccc34)c3ccc(Cl)c-2c31 (racemic) [Example 16, (rac)-4-chloro-7-{3-[(6-fluoronaphthalen-1-yl)oxy]propyl}-2,3-dimethyl-15-[2-(morpholin-4-yl)ethyl]-2,10,11,12,13,15-hexahydropyrazolo[4′,3′:9,10][1,6]oxazacycloundecino[8,7,6-hi]indole-8-carboxylic Acid]
IC50 ([2]; SK-BR-3, 72 h, CellTiter-Glo): 108 nM

Cc1c2c(nn1C)C(CCN1CCOCC1)OCCCCn1c(C(=O)O)c(CCCOc3cccc4cc(F)ccc34)c3ccc(F)c-2c31 (single isomer, unassigned; enantiomer 1) [Example 20, 4-fluoro-7-{3-[(6-fluoronaphthalen-1-yl)oxy]propyl}-2,3-dimethyl-15-[2-(morpholin-4-yl)ethyl]-2,10,11,12,13,15-hexahydropyrazolo[4′,3′:9,10][1,6]oxazacycloundecino[8,7,6-hi]indole-8-carboxylic Acid—N-ethylethanamine (Enantiomer 1)]
IC50 ([1]; PA-1, 72 h): 304 nM
IC50 ([2]; SK-BR-3, 72 h): 173 nM

CCc1c2c(nn1C)C(CCN1CCOCC1)OCCCCn1c(C(=O)O)c(CCCOc3cccc4cc(F)ccc34)c3ccc(F)c-2c31 (single isomer, unassigned; enantiomer 1) [Example 50, (+)-3-ethyl-4-fluoro-7-{3-[(6-fluoronaphthalen-1-yl)oxy]propyl}-2-methyl-15-[2-(morpholin-4-yl)ethyl]-2,10,11,12,13,15-hexahydropyrazolo[4′,3′:9,10][1,6]oxazacycloundecino[8,7,6-hi]indole-8-carboxylic Acid (Enantiomer 1)]
IC50 ([1]; PA-1, 72 h, CellTiter-Glo): 222 nM

CCc1c2c(nn1C)C(CCC(C)(C)O)OCCCCn1c(C(=O)O)c(CCCOc3cccc4cc(F)ccc34)c3ccc(Cl)c-2c31 (single isomer, unassigned; enantiomer 1) [Example 75, (+)-4-chloro-3-ethyl-7-{3-[(6-fluoronaphthalen-1-yl)oxy]propyl}-15-(3-hydroxy-3-methylbutyl)-2-methyl-2,10,11,12,13,15-hexahydropyrazolo[4′,3′:9,10][1,6]oxazacycloundecino[8,7,6-hi]indole-8-carboxylic Acid—N-ethylethanamine Salt (Enantiomer 1)]
IC50 ([1]; PA-1, 72 h, CellTiter-Glo): 118 nM

Cc1c2c(nn1C)C(C)OCCCCn1c(C(=O)O)c(CCCOc3cccc4ccccc34)c3cccc-2c31 (single isomer, unassigned; stereoisomer 2) [Example 3, 2,3,15-trimethyl-7-[3-(naphthalen-1-yloxy)propyl]-2,10,11,12,13,15-hexahydropyrazolo[4′,3′:9,10][1,6]oxazacycloundecino[8,7,6-hi]indole-8-carboxylic Acid Trifluoroacetic Acid Salt (Stereoisomer 2)]
IC50 [3]: 7000 nM

Cc1c2c(nn1C)C(C)OCCCCn1c(C(=O)O)c(CCCOc3cccc4ccccc34)c3cccc-2c31 (single isomer, unassigned; stereoisomer 1) [Example 2, 2,3,15-trimethyl-7-[3-(naphthalen-1-yloxy)propyl]-2,10,11,12,13,15-hexahydropyrazolo[4′,3′:9,10][1,6]oxazacycloundecino[8,7,6-hi]indole-8-carboxylic Acid Trifluoroacetic Acid Salt (Stereoisomer 1)]
IC50 [3]: 2900 nM

Cc1c2c(nn1C)C(C)OCCCCn1c(C(=O)O)c(CCCOc3cccc4ccccc34)c3cccc-2c31 (racemic) [Example 1, (rac)-2,3,15-trimethyl-7-[3-(naphthalen-1-yloxy)propyl]-2,10,11,12,13,15-hexahydropyrazolo[4′,3′:9,10][1,6]oxazacycloundecino[8,7,6-hi]indole-8-carboxylic Acid (Mixture of Stereoisomers)]
IC50 ([3]; Homo sapiens, SU-DHL10): 7000 nM

Cc1c2c(nn1C)C(CCN1CCOCC1)OCCCCn1c(C(=O)O)c(CCCOc3cccc4ccccc34)c3ccc(F)c-2c31 (racemic) [Example 7, (rac)-4-fluoro-2,3-dimethyl-15-[2-(morpholin-4-yl)ethyl]-7-[3-(naphthalen-1-yloxy)propyl]-2,10,11,12,13,15-hexahydropyrazolo[4′,3′:9,10][1,6]oxazacycloundecino[8,7,6-hi]indole-8-carboxylic Acid]
IC50 ([3]; Homo sapiens, SU-DHL10): 160 nM

CCc1c2c(nn1C)C(CCN1CCOCC1)OCCCCn1c(C(=O)O)c(CCCOc3cccc4ccccc34)c3ccc(F)c-2c31 (racemic) [Example 10, (rac)-3-ethyl-4-fluoro-2-methyl-15-[2-(morpholin-4-yl)ethyl]-7-[3-(naphthalen-1-yloxy)propyl]-2,10,11,12,13,15-hexahydropyrazolo[4′,3′:9,10][1,6]oxazacycloundecino[8,7,6-hi]indole-8-carboxylic Acid]
IC50 ([3]; Homo sapiens, SU-DHL10): 140 nM

CCc1c2c(nn1C)C(CCN1CC(F)(F)C1)OCCCCn1c(C(=O)O)c(CCCOc3cccc4cc(F)ccc34)c3ccc(Cl)c-2c31 (single isomer, unassigned; (+)) [Example 78, (+)-4-chloro-15-[2-(3,3-difluoroazetidin-1-yl)ethyl]-3-ethyl-7-{3-[(6-fluoronaphthalen-1-yl)oxy]propyl}-2-methyl-2,10,11,12,13,15-hexahydropyrazolo[4′,3′:9,10][1,6]oxazacycloundecino[8,7,6-hi]indole-8-carboxylic Acid—N-ethylethanamine Salt]
IC50 ([1]; PA-1, 72 h, CellTiter-Glo): 127 nM

From patent publication US11440923B2, “Substituted macrocyclic indole derivatives” (Bayer Aktiengesellschaft, priority 2017, dated 2022)
